Data: PubChem BioAssay (NCI)
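Protocol summary: plate cells (96-well), add compound at 5 concentrations, incubate 48 h, interpolate endpoints linearly. GI50: concentration for 50% inhibition of growth. TGI: total growth inhibition.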

The compounds below were run on M14 melanoma (assay: NCI tumour cell line growth inhibition, 48 h).
`O=C(/C(=C/c1ccc(Cl)cc1)c1ccccc1)c1ccccc1` gave a TGI of 31.4 µM.
Work on `CC1(C)COC(c2cccc3c2C(=O)c2cccc(Cl)c2-3)=N1` yielded a TGI greater than 100 µM.
With `CN(C)CCC(/C=C/c1ccccc1)=N\Nc1ccccc1` the TGI was 13 µM.
For `CCOC(=O)c1ccc(/C(C)=N/NC(N)=S)cc1`, the TGI was greater than 100 µM.
Compound `Cc1cc2c(=O)c3ccccc3[nH]c2c(C(N)=O)c1C` has a TGI greater than 100 µM.
In the case of `O=C(Nc1cccc(C(F)(F)F)c1)c1ccc(NC2=C(Cl)C(=O)N(Cc3ccc(Cl)cc3Cl)C2=O)cc1`, the GI50 is reported as 15.3 µM and the TGI is reported as 32.4 µM.

What follows are compounds tested on NCI-H226 lung (assay: NCI tumour cell line growth inhibition, 48 h).
Work on `CC1(C)OC2C(CO[Si](C)(C)C(C)(C)C)OC(n3c(I)c(C#C[Si](C)(C)C)c(=O)[nH]c3=O)C2O1` (centres undefined) yielded a GI50 of 17 µM and a TGI of 34 µM.
Compound `CN(C)CC[C@H](CSc1ccccc1)Nc1ccc(S(=O)(=O)NC(=O)c2ccc(N3CCN(Cc4ccccc4-c4ccc(Cl)cc4)CC3)cc2)cc1[N+](=O)[O-]` has a GI50 of 4.59 µM and a TGI of 17.4 µM.
`COc1ccc(-c2ccc(=O)oc2C#Cc2cc(OC)c(OC)c(OC)c2)cc1O` showed a GI50 of 1.42 µM and a TGI greater than 100 µM.
`COC(=O)C(=Cc1cc(OC)c(OC)c(OC)c1-c1cc2c(cc1C1(C)OCCS1)OCO2)C(=O)OC` (centres undefined) gave a TGI greater than 100 µM.
Compound `C#CC1/C(=C\C(=O)OC)CCCC1O` (centres undefined) has a TGI greater than 100 µM.
`O=C(/C=C/c1ccc[nH]1)c1ccc(-n2ccc(C(F)(F)F)n2)cc1` gave a TGI greater than 100 µM.
Compound `O=C(c1ccco1)c1c(C(F)(F)F)nc2ccc(Cl)cc2[n+]1[O-]` has a GI50 greater than 100 µM and a TGI greater than 100 µM.
`CC12CCC(=O)C[C@H]1CCC(OC=O)C2Br` (some centres undefined) showed a TGI greater than 100 µM.
`COc1ccc(-c2nnc3n(C)c(=O)c4ccccc4n23)cc1N` gave a GI50 greater than 100 µM and a TGI greater than 100 µM.
With `Clc1cc2c(c(CSc3nc4ccccc4n4cccc34)c1)OCOC2` the GI50 was 14.3 µM and the TGI was greater than 100 µM.
`CCOC(=O)N[C@H]1CCc2cc(OC)c(OC)c(OC)c2-c2ccc(SC)c(=O)cc21` was tested, and the TGI was 3.29 µM.
`Cc1ccc2nc(/C(=C/c3ccc(/C=C(\NC(=O)c4ccccc4)c4nc5ccc(C)cc5[nH]4)c(C)c3)NC(=O)c3ccccc3)[nH]c2c1` gave a TGI of 77.5 µM.
`O=C(Nc1cccc(Cl)c1)C(=O)C(C(=O)c1ccc2ccccc2c1)C1OC(=O)c2ccccc21` (centres undefined) was tested, and the TGI was 11.5 µM.
For `CC1=Cc2cccc(C)c2C(=O)C1=O`, the TGI was 30.5 µM.
`NNC(=O)CNc1cccc(Br)c1` gave a TGI greater than 100 µM.
For `N#CC(C(=O)/C(=N\NC(N)=O)C(C#N)c1ccc(Cl)cc1)c1ccc(Cl)cc1` (centres undefined), the TGI was greater than 100 µM.
Work on `NC(N)=NCCCC(=O)O` yielded a TGI greater than 100 µM.
`Nc1ncn([C@@H]2O[C@H](CO)[C@@H](O)[C@H]2O)c(=O)n1` showed a GI50 of 1.39 µM and a TGI of 9.63 µM.
For `COc1c(O)c2c(=O)cc3c4c5c(cc(=O)c6c(O)c(OC)c(CC(C)O)c(c(c1CC(C)O)c24)c65)OCO3` (centres undefined), the TGI was 6.66 µM.
With `COc1ccc(CCN(C)C2CCC(C#N)(c3ccc(OC)c(OC)c3)CC2)cc1OC` (centres undefined) the TGI was greater than 100 µM.
For `CCOC(=O)c1nc2c(OC)nn(O)cc-2c1[N+](=O)[O-]`, the TGI was 79.6 µM.
`O=C(OC1CCC(=C2SCCCS2)[C@H]1C1SCCCS1)c1ccccc1` (some centres undefined) gave a TGI greater than 100 µM.
Compound `O=C(/C(=C/c1ccc(Cl)cc1)c1ccccc1)c1ccccc1` has a TGI of 31.7 µM.
Compound `c1ccc2c(OCCSCCCCCCCCCCSCCOc3cccc4ccccc34)cccc2c1` has a TGI greater than 100 µM.
Compound `NC(N)=N/N=C/c1c(Cl)cccc1Cl` has a GI50 of 24.1 µM and a TGI greater than 100 µM.
`Cc1cc2c(=O)c3ccccc3[nH]c2c(C(N)=O)c1C` was tested, and the TGI was greater than 100 µM.
In the case of `O=C(Nc1cccc(C(F)(F)F)c1)c1ccc(NC2=C(Cl)C(=O)N(Cc3ccc(Cl)cc3Cl)C2=O)cc1`, the GI50 is reported as 5.92 µM and the TGI is reported as 24 µM.

The compounds below were run on NCI-H23 lung (assay: NCI tumour cell line growth inhibition, 48 h).
Compound `CC1(C)OC2C(CO[Si](C)(C)C(C)(C)C)OC(n3c(I)c(C#C[Si](C)(C)C)c(=O)[nH]c3=O)C2O1` (centres undefined) has a GI50 of 18.2 µM and a TGI of 50.9 µM.
With `CN(C)CC[C@H](CSc1ccccc1)Nc1ccc(S(=O)(=O)NC(=O)c2ccc(N3CCN(Cc4ccccc4-c4ccc(Cl)cc4)CC3)cc2)cc1[N+](=O)[O-]` the GI50 was 9.07 µM and the TGI was greater than 100 µM.
`COc1ccc(-c2ccc(=O)oc2C#Cc2cc(OC)c(OC)c(OC)c2)cc1O` was tested, and the GI50 was 1.17 µM and the TGI was greater than 100 µM.
`COC(=O)C(=Cc1cc(OC)c(OC)c(OC)c1-c1cc2c(cc1C1(C)OCCS1)OCO2)C(=O)OC` (centres undefined) showed a TGI greater than 100 µM.
`C#CC1/C(=C\C(=O)OC)CCCC1O` (centres undefined) showed a TGI greater than 100 µM.
Work on `O=C(/C=C/c1ccc[nH]1)c1ccc(-n2ccc(C(F)(F)F)n2)cc1` yielded a GI50 greater than 100 µM and a TGI greater than 100 µM.
Compound `O=C(c1ccco1)c1c(C(F)(F)F)nc2ccc(Cl)cc2[n+]1[O-]` has a GI50 of 69.5 µM and a TGI greater than 100 µM.
With `CC12CCC(=O)C[C@H]1CCC(OC=O)C2Br` (some centres undefined) the TGI was greater than 100 µM.
`COc1ccc(-c2nnc3n(C)c(=O)c4ccccc4n23)cc1N` gave a GI50 of 5.28 µM and a TGI greater than 100 µM.
`Clc1cc2c(c(CSc3nc4ccccc4n4cccc34)c1)OCOC2` was tested, and the GI50 was 26.3 µM and the TGI was greater than 100 µM.
In the case of `COc1ccc2c(c1OCC(=O)O)C(=O)C(CCC(=O)O)CC2` (centres undefined), the TGI is reported as greater than 100 µM.
`Cc1ccc2nc(/C(=C/c3ccc(/C=C(\NC(=O)c4ccccc4)c4nc5ccc(C)cc5[nH]4)c(C)c3)NC(=O)c3ccccc3)[nH]c2c1` gave a TGI of 45.3 µM.
`COC1C(OC(=S)Nc2ccccc2)c2ccccc2N1C(C)=O` (centres undefined) gave a TGI greater than 100 µM.
Compound `Cc1nc(Nc2cccnc2)sc1C(=O)/C=C/c1ccc(F)cc1` has a GI50 of 3.93 µM and a TGI of 20.7 µM.
For `O=C(Nc1cccc(Cl)c1)C(=O)C(C(=O)c1ccc2ccccc2c1)C1OC(=O)c2ccccc21` (centres undefined), the TGI was 24.8 µM.
With `CC1=Cc2cccc(C)c2C(=O)C1=O` the TGI was 32.8 µM.
`COCC(OC)C(CC=C(C#N)C#N)OC` (centres undefined) was tested, and the TGI was greater than 100 µM.
Compound `NC1CCN(Cc2ccccc2)CC1` has a GI50 greater than 100 µM and a TGI greater than 100 µM.
Compound `NNC(=O)CNc1cccc(Br)c1` has a TGI greater than 100 µM.
For `N#CC(C(=O)/C(=N\NC(N)=O)C(C#N)c1ccc(Cl)cc1)c1ccc(Cl)cc1` (centres undefined), the TGI was greater than 100 µM.
`NC(N)=NCCCC(=O)O` was tested, and the TGI was greater than 100 µM.
For `Nc1ncn([C@@H]2O[C@H](CO)[C@@H](O)[C@H]2O)c(=O)n1`, the GI50 was 3.91 µM and the TGI was 41.1 µM.
Work on `COc1c(O)c2c(=O)cc3c4c5c(cc(=O)c6c(O)c(OC)c(CC(C)O)c(c(c1CC(C)O)c24)c65)OCO3` (centres undefined) yielded a TGI of 3.1 µM.
`COc1ccc(CCN(C)C2CCC(C#N)(c3ccc(OC)c(OC)c3)CC2)cc1OC` (centres undefined) was tested, and the TGI was greater than 100 µM.
`O=C(OC1CCC(=C2SCCCS2)[C@H]1C1SCCCS1)c1ccccc1` (some centres undefined) showed a TGI greater than 100 µM.
In the case of `O=C1CCC2(c3ccc(Cl)cc3)Nc3cc(Cl)ccc3N12` (centres undefined), the TGI is reported as 23.2 µM.
Work on `O=C(/C(=C/c1ccc(Cl)cc1)c1ccccc1)c1ccccc1` yielded a TGI of 40.5 µM.
`CC1(C)COC(c2cccc3c2C(=O)c2cccc(Cl)c2-3)=N1` showed a TGI greater than 100 µM.
With `CN(C)CCC(/C=C/c1ccccc1)=N\Nc1ccccc1` the TGI was 13.9 µM.
With `CCOC(=O)c1ccc(/C(C)=N/NC(N)=S)cc1` the TGI was greater than 100 µM.
`c1ccc2c(OCCSCCCCCCCCCCSCCOc3cccc4ccccc34)cccc2c1` showed a TGI greater than 100 µM.
For `NC(N)=N/N=C/c1c(Cl)cccc1Cl`, the GI50 was 36.5 µM and the TGI was greater than 100 µM.
Compound `Cc1cc2c(=O)c3ccccc3[nH]c2c(C(N)=O)c1C` has a TGI greater than 100 µM.

Each compound was assayed on NCI-H522 lung (assay: NCI tumour cell line growth inhibition, 48 h).
In the case of `CC1(C)OC2C(CO[Si](C)(C)C(C)(C)C)OC(n3c(I)c(C#C[Si](C)(C)C)c(=O)[nH]c3=O)C2O1` (centres undefined), the GI50 is reported as 1.38 µM and the TGI is reported as 2.74 µM.
`COc1ccc(-c2ccc(=O)oc2C#Cc2cc(OC)c(OC)c(OC)c2)cc1O` gave a GI50 of 0.172 µM and a TGI of 0.852 µM.
For `COC(=O)C(=Cc1cc(OC)c(OC)c(OC)c1-c1cc2c(cc1C1(C)OCCS1)OCO2)C(=O)OC` (centres undefined), the TGI was 55.5 µM.
For `C#CC1/C(=C\C(=O)OC)CCCC1O` (centres undefined), the TGI was greater than 100 µM.
`O=C(/C=C/c1ccc[nH]1)c1ccc(-n2ccc(C(F)(F)F)n2)cc1` gave a GI50 of 4.08 µM and a TGI greater than 100 µM.
Work on `O=C(c1ccco1)c1c(C(F)(F)F)nc2ccc(Cl)cc2[n+]1[O-]` yielded a GI50 of 83.1 µM and a TGI greater than 100 µM.
`CC12CCC(=O)C[C@H]1CCC(OC=O)C2Br` (some centres undefined) was tested, and the TGI was greater than 100 µM.
`COc1ccc(-c2nnc3n(C)c(=O)c4ccccc4n23)cc1N` was tested, and the GI50 was 0.0306 µM and the TGI was 42.6 µM.
In the case of `Clc1cc2c(c(CSc3nc4ccccc4n4cccc34)c1)OCOC2`, the GI50 is reported as 23.4 µM and the TGI is reported as greater than 100 µM.
In the case of `Cc1ccc2nc(/C(=C/c3ccc(/C=C(\NC(=O)c4ccccc4)c4nc5ccc(C)cc5[nH]4)c(C)c3)NC(=O)c3ccccc3)[nH]c2c1`, the TGI is reported as 42.6 µM.
In the case of `Cc1nc(Nc2cccnc2)sc1C(=O)/C=C/c1ccc(F)cc1`, the GI50 is reported as 2.17 µM and the TGI is reported as 5.11 µM.
For `CC1=Cc2cccc(C)c2C(=O)C1=O`, the TGI was 9.87 µM.
For `COCC(OC)C(CC=C(C#N)C#N)OC` (centres undefined), the TGI was greater than 100 µM.
In the case of `NC1CCN(Cc2ccccc2)CC1`, the GI50 is reported as greater than 100 µM and the TGI is reported as greater than 100 µM.
